Laboratory results reported in patent publication US8044022B2, “Hyaluronic acid binding peptides enhance host defense against pathogenic bacteria” (priority 2005, dated 2011).

Tests used:
[1] = Fluorometry binding of FITC-conjugated peptide to purified HA in well; set-up: species or system rooster
Protocol: Lyophilized synthetic peptides were resuspended in PBS pH7.4 prior to use in either in vitro or in vivo experiments. Fluorescein conjugation of HABP01 and SCRM was performed using 5,6 carboxyfluorescein, succinimidyl ester (5,6 FAM) (Molecular Probes, Portland, Oreg.) as per manufacturer's instructions and separated on a Sephadex G-25 column (Amersham, Piscataway, N.J.). Purified, high molecular weight rooster comb HA (Sigma-Aldrich, St Louis, Mo.) was used as a positive control for BP binding.
(§1) Binding of HABP to HA and HA-encapsulated bacteria: To assess whether HABP are able to associate specifically with the GAS capsule, bacteria were cultured to mid-log phase, for maximal HA capsule expression, and incubated with either 10 μg/ml of FITC-conjugated HABP01 or SCRM, with purified HA at 1 mg/ml, as a positive control, or an isogenic mutant strain of GAS deficient in HA capsule, as a negative control. A GAS-specific antibody was used to control for the number of bacteria per well.

[2] = tested on: Wild Type GAS (HA encapsulated); test: Fluorometry binding of FITC-conjugated peptide to encapsulated GAS; set-up: species or system Group A Streptococcus
Protocol: Bacterial strains: GAS strain 950771 is a moderately encapsulated M3 clinical isolate from a child with post-varicella necrotizing fasciitis and sepsis, and an isogenic capsule deficient mutant, 188, derived from 950771. GAS were grown in Todd-Hewitt broth (Difco) to mid-exponential phase OD650 of 0.15 at 37° C. for all experiments. Commercially available trypticase-soy agar medium supplemented with 5% vol/vol sheep blood (BAP)(PML Microbiologicals, British Columbia, Canada) were used for all plate cultures. S. equi s(ATCC 53185) and P. multocida (ATCC 11039) were purchased from ATCC and cultured as recommended. Briefly, S. equi was cultured in Todd-Hewitt broth and S. uberis and P. multocida were cultured in Brain heart infusion (Difco) to OD 650 of 0.15 at 37° C. Quantitative cultures were performed in parallel with each experiment to verify the multiplicity of infection (MOI) of the inoculum.
as §1

[3] = tested on: GAS; test: Opsonophagocytic assay with human neutrophils; type: cell-based, Group A Streptococcus; settings: 50 μg/ml, 2 hours incubation with human neutrophils, 10% absorbed human serum
Protocol: Encapsulated GAS are resistant to killing by neutrophils in opsonophagocytic assays in the absence of antibodies that bind the bacterial surface. HABPs binding to the bacterial surface may facilitate neutrophil cytotoxicity. Opsonophagocytic assays were performed wherein GAS were incubated with 50 μg/ml of SCRM, HABP01 or HABP35 and mixed with human neutrophils in medium containing 10% absorbed human serum. Aliquots (25 μl) for quantitative culture were withdrawn immediately after mixing neutrophil with GAS and after 2 hr incubation at 37° C. The log increase or decrease in CFU's was calculated. After 2 hours of incubation, there was about a 1.5 log increase in CFU's for GAS treated with PBS or SCRM.

[4] = tested on: GAS; test: Bacterial translocation through polarized keratinocyte cultures (Transwell); type: cell-based, Group A Streptococcus; settings: two hours after addition of GAS
Protocol: Cell cultures: For the preparation of in vitro keratinocyte cultures, human primary OKP7 cells were derived from the oropharynx. Keratinocytes were seeded at 5×10^5 cells per well onto polycarbonate Transwell membrane supports (12 well plates, 3.0 μm pore size; Costar) or tissue culture treated plastic ware and cultured for 5-10 days at 37° C. with 5% humidified CO2 in cSFM medium with daily medium changes. Once confluent, the calcium concentration of the cSFM was increased to 1.2 mM and cells were cultured for 2 more days, before the integrity of the monolayer was assessed by measuring permeability to sodium fluorescein, and in some experiments, by measuring transepithelial electrical resistance.
Infection procedures: Keratinocyte layer cultures in Transwell inserts were inoculated in the upper chamber with GAS, S. equi, S. uberis, and P. multocida at a multiplicity of infection (MOI) of 1 bacterium per keratinocyte in the presence or absence of HABP01 or SCRM. Infected cultures were incubated at 37° C. with 5% CO2 for the desired time. In translocation experiments, Transwell inserts containing the keratinocytes were moved to new wells containing fresh medium every 2 hours to prevent overgrowth of bacteria that had translocated through the keratinocytes layer to the lower chamber. Bacterial translocation was quantified by culturing medium from the lower chamber at 2-hour intervals.
Bacterial translocation studies were performed to assess the impact of HABP01 on bacterial paracellular translocation through polarized keratinocyte cultures.
Incubation of GAS in the presence of HABP33, HABP35 and HABP42, also delayed GAS translocation. At two hours after the addition of GAS to the keratinocytes, approximately 530 CFU of GAS were detected in the lower level in cultures treated with PBS or SCRM peptide.

[5] = tested on: S. aureus strain PS80; test: Mouse model of S. aureus surgical wound infection; type: in vivo, C57BL6 mice; settings: 100 μg into wound at time of challenge with 10^2 CFU; 3 days later
Protocol: Bacterial strains. S. aureus strain PS80 (serotype 8) was obtained from the American Type Culture collection (#27700) and is a potent inducer of intraabdominal abscess formation. S. aureus COL is a methicillin resistant strain that produces a serotype 5 capsule. Staphylococci were cultivated for 24 h at 37° C. on Columbia agar (Difco Laboratories, Detroit, Mich.) supplemented with 2% NaCl.
Mouse model of S. aureus wound infection. Mice (C57BL6, male, 6-8 wk old) were obtained from Jackson Laboratories (Bar Harbor, Me.). Groups of mice (N=4/group/experiment) were anesthetized with 100 mg/kg ketamine and 10 mg/kg xylazine, their right thighs were shaved, and the surgical area was disinfected with iodine and 70% ethanol. An incision was made in the skin to expose the thigh muscle, and a 1-cm incision was made with a scalpel into the thigh muscle to the depth of the bone. The muscle was then closed with one 4-0 silk suture, and 10 μl of a S. aureus suspension ranging in dose from 10^2 to 10^4 CFU was introduced into the incision under the suture. The skin was closed with four additional Prolene sutures. The mice were euthanized at 3 days post-surgery. The wounded muscle tissue was excised, weighed (˜0.08 g), and homogenized in 1 ml of tryptic soy broth. Serial dilutions of the homogenates were plated in duplicate and results were expressed as CFU/g tissue. Peptides were administered to animals in two ways. For most experiments, HABPs were solubilized in PBS and administered with a pipet into the wound in a 10 μl volume following challenge with bacteria. A 100 μg dose was used for most experiments. For therapeutic studies, peptide was administered via a 1 ml tuberculin syringe fitted with a 25 gauge needle in a 0.25 ml volume injected into the thigh muscle containing the wound distal from the incision site.
Gross pathology and histologic analysis of host response. […] Histological examination of these wounds confirmed these findings. Muscle tissue was harvested from mice at designated intervals post-surgery, fixed in 10% buffered formalin, and mounted in paraffin; 5 to 6-μm sections were cut and stained with hematoxylin and eosin for microscopic examination. […] The cellular infiltrate was primarily comprised of PMNs and fibrin.
Statistical analyses. All animal experiments were performed at least two times and the data pooled. Comparison of S. aureus CFU/g tissue was made by the Welch modification of the unpaired Student t test (InStat, GraphPad Software, San Diego, Calif.).

HKSVSRHTSMRHSTM [SCRM, reference compound]
binding to purified HA (in words) ([1]; fluorometry): did not bind
Relative binding ([1]; substrate in well: HA (1 mg/ml), 10 μg/ml FITC-conjugated peptide): 1520 ± 20 relative fluorescent units
binding to encapsulated GAS (in words) ([2]; fluorometry, HABP35 also confocal microscopy, data not shown): did not bind
Relative binding ([2]; substrate in well: Wild Type GAS, 10 μg/ml FITC-conjugated peptide): 1550 ± 30 relative fluorescent units
log increase in CFU's [3]: ~1.5 log
GAS detected in the lower level [4]: approximately 530 CFU
bacterial burden at the wound site compared with PBS [5]: did not have this effect
